This assay addresses T1, Vitamin D3 receptor (Homo sapiens, UniProt P11473).
T1 sequence (P11473 whole entry): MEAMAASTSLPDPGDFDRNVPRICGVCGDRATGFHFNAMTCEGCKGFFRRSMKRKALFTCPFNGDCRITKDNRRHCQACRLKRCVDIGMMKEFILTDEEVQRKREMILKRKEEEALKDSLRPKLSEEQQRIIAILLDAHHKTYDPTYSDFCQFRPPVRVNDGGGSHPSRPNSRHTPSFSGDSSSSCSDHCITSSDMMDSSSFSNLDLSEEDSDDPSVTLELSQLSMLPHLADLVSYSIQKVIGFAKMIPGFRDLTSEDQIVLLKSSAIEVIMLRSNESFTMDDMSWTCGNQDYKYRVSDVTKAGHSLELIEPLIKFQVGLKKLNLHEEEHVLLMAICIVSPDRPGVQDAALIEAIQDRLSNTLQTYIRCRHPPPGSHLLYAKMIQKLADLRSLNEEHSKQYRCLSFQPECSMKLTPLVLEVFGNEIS
Nature of the assay: Binding affinity to full length human VDR by Competitive binding assay.

IC50 data for 1 compound are collected here from BindingDB's records for doi:10.1021/acs.jmedchem.3c01371 (University of Santiago De Compostela, 2023).

`C=C1/C(=C\C=C(/C)c2cccc(CCC#CCC(O)(C(F)(F)F)C(F)(F)F)c2)C[C@@H](O)C[C@@H]1O` showed an IC50 of 4.6 nM.

The IC50 is the midpoint of a concentration-inhibition curve. Lower therefore signals inhibition by little substance.
